Legend:
Assay in all cases: relative viability (nuclei count vs DMSO), 5 days (fraction); higher = more cells survive
Axitinib + Dasatinib = compound: CNC(=O)c1ccccc1Sc1ccc2c(/C=C/c3ccccn3)n[nH]c2c1 [Axitinib] + Cc1nc(Nc2ncc(C(=O)Nc3c(C)cccc3Cl)s2)cc(N2CCN(CCO)CC2)n1 [Dasatinib] (partner 0.075 µM)
In short: (§1)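 Lung cancer cell lines were seeded in 1536-well plates and dosed by pin tool the next day, with either a single drug or a fixed anchor-drug dose combined with five library-drug doses (not always all listed) spaced in √10 steps. Five days later, one step fixed the cells and stained their nuclei (final 0.05% Triton X-100, 1% formaldehyde, 1 ug/ml Hoechst), and nuclei were counted on 4× images. Relative viability is the nuclei count in treated wells divided by the count in vehicle wells, and each value is the median of duplicate plates.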

[1] = compound: CC1=CC=C(C=C1)C(=O)CN2C3=C(CCCC3)SC2=N [Pifithrin_alpha] + O=C(c1cc(Cc2n[nH]c(=O)c3ccccc23)ccc1F)N1CCN(C(=O)C2CC2)CC1 [Olaparib] (partner 8 µM)
In short: as §1

Axitinib + AZD7762 = compound: CNC(=O)c1ccccc1Sc1ccc2c(/C=C/c3ccccn3)n[nH]c2c1 [Axitinib] + NC(=O)Nc1cc(-c2cccc(F)c2)sc1C(=O)N[C@H]1CCCNC1 [AZD7762] (partner 0.2 µM)
In short: as §1

Axitinib + Pictilisib = compound: CNC(=O)c1ccccc1Sc1ccc2c(/C=C/c3ccccn3)n[nH]c2c1 [Axitinib] + CS(=O)(=O)N1CCN(Cc2cc3nc(-c4cccc5[nH]ncc45)nc(N4CCOCC4)c3s2)CC1 [Pictilisib] (partner 1 µM)
In short: as §1

Cell Line | relative viability (Axitinib + Dasatinib; first compound 0.005 µM) | relative viability (Axitinib + Dasatinib; first compound 0.01581 µM) | relative viability (Axitinib + Dasatinib; first compound 0.05 µM) | relative viability (Axitinib + Dasatinib; first compound 0.1581 µM) | relative viability (Axitinib + Dasatinib; first compound 0.5 µM) | relative viability ([1]; first compound 1 µM) | relative viability ([1]; first compound 3.162 µM) | relative viability ([1]; first compound 10 µM) | relative viability ([1]; first compound 31.62 µM) | relative viability ([1]; first compound 100 µM) | relative viability (Axitinib + AZD7762; first compound 0.005 µM) | relative viability (Axitinib + AZD7762; first compound 0.01581 µM) | relative viability (Axitinib + AZD7762; first compound 0.05 µM) | relative viability (Axitinib + AZD7762; first compound 0.1581 µM) | relative viability (Axitinib + AZD7762; first compound 0.5 µM) | relative viability (Axitinib + Pictilisib; first compound 0.005 µM) | relative viability (Axitinib + Pictilisib; first compound 0.01581 µM) | relative viability (Axitinib + Pictilisib; first compound 0.05 µM) | relative viability (Axitinib + Pictilisib; first compound 0.1581 µM) | relative viability (Axitinib + Pictilisib; first compound 0.5 µM)
HARA | 0.211 | 0.2 | 0.293 | 0.246 | 0.253 | 0.659 | 0.931 | 1 | 0.305 | 0.808 | 0.315 | 0.447 | 0.369 | 0.348 | 0.313 | 0.324 | 0.401 | 0.545 | 0.364 | 0.281
HCC-15 | 0.658 | 0.673 | 0.658 | 0.56 | 0.622 | 0.733 | 0.867 | 0.697 | 0.368 | 0.581 | 1.36 | 1.13 | 1.35 | 1.14 | 1.18 | 0.696 | 0.828 | 0.761 | 0.736 | 0.737
HCC-78 | 0.328 | 0.288 | 0.534 | 0.387 | 0.329 |  | 0.925 | 0.785 | 0.51 | 0.683 | 0.787 | 0.58 | 0.857 | 0.708 | 0.498 | 0.207 | 0.257 | 0.238 | 0.229 | 0.218
HCC-366 | 0.7 | 0.646 | 0.711 | 0.581 | 0.455 | 0.344 | 0.238 | 0.299 |  | 0.209 | 0.307 | 0.206 | 0.377 | 0.337 | 0.405 | 0.116 | 0.171 | 0.146 | 0.153 | 0.101
HCC-827 | 0.302 | 0.209 | 0.356 | 0.398 | 0.274 | 0.248 | 0.672 | 0.715 | 0.355 | 0.648 | 0.195 | 0.129 | 0.176 | 0.212 | 0.214 | 0.911 | 1.04 | 0.947 | 1.08 | 0.889
HOP-62 | 0.693 | 0.704 | 0.77 | 0.684 | 0.726 | 0.524 | 0.635 | 0.446 | 0.127 | 0.65 | 0.654 | 0.548 | 0.592 | 0.728 | 0.97 | 0.679 | 0.861 | 0.735 | 0.792 | 0.583
LC-2-ad | 0.526 | 0.572 | 0.425 | 0.546 | 0.486 | 0.756 | 0.739 | 0.683 | 0.444 | 0.555 | 0.845 | 0.845 | 0.834 | 0.841 | 0.952 | 0.505 | 0.516 | 0.458 | 0.54 | 0.469
LCLC-97TM1 | 0.834 | 0.722 | 0.857 | 0.753 | 0.842 |  | 0.39 | 0.33 |  | 0.289 | 0.22 | 0.327 | 0.218 | 0.281 | 0.374 | 0.145 | 0.229 | 0.206 | 0.247 | 0.172
LCLC-103H | 0.524 | 0.516 | 0.483 | 0.402 | 0.364 | 0.772 | 0.817 | 0.644 | 0.52 | 0.686 | 0.843 | 0.752 | 0.816 | 0.836 | 0.674 | 0.644 | 0.512 | 0.664 | 0.569 | 0.587
LK-2 | 0.333 | 0.305 | 0.343 | 0.282 | 0.223 | 0.554 | 0.833 | 0.933 |  | 0.776 | 0.385 | 0.335 | 0.279 | 0.447 | 0.307 | 0.556 | 0.434 | 0.512 | 0.506 | 0.486
LOU-NH91 | 0.569 | 0.434 | 0.61 | 0.558 | 0.568 | 0.821 | 0.908 | 0.864 | 0.523 | 0.795 | 0.806 | 0.723 | 0.814 | 0.761 | 0.78 | 0.528 | 0.529 | 0.557 | 0.544 | 0.52
LU99A | 0.626 | 0.563 | 0.589 | 0.577 | 0.475 | 0.248 | 0.242 | 0.277 |  | 0.236 | 0.433 | 0.451 | 0.397 | 0.39 | 0.415 | 0.355 | 0.349 | 0.336 | 0.363 | 0.306
LXF-289 | 0.242 | 0.208 | 0.285 | 0.304 | 0.271 | 1.16 | 0.994 | 1.1 | 0.717 | 1.16 | 1.16 | 1.06 | 1.11 | 1.06 | 1.18 | 0.823 | 0.732 | 0.833 | 0.765 | 0.742
NCI-H23 | 1.04 | 0.872 | 0.933 | 0.778 | 0.803 | 0.248 | 0.249 | 0.223 | 0.191 | 0.177 | 0.328 | 0.216 | 0.23 | 0.241 | 0.288 | 0.535 | 0.574 | 0.505 | 0.477 | 0.508
